According to patent US12419902B2, “Anti-viral and anti-tumoral compounds” (priority 2019, dated 2025):
≈ marks a conversion by molar mass, not a printed value.

Assays:
in vitro [1] = conditions: African green monkey
in vitro [2] = conditions: human
Zika virus [3] = assay type: cell-based
Influenza B = assay: microbe, parasite or virus in culture; assay type: cell-based
Influenza A (H5N1) = assay: microbe, parasite or virus in culture; assay type: cell-based
Influenza A (H1N1) = assay: microbe, parasite or virus in culture; assay type: cell-based
[4] = tested on: Rift Valley fever virus (RVFV); assay: microbe, parasite or virus in culture; assay type: cell-based; conditions: Vero 76
RSV = assay: microbe, parasite or virus in culture; assay type: cell-based; conditions: human respiratory syncytial virus, MA104
enterovirus-68 (EV-68) = assay type: cell-based
Zika virus [5] = conditions: nucleoside applied to cells, phosphorylated to ddhCTP; cited from earlier work

For CC(C)S(=O)(=O)n1c(N)nc2ccc(/C(=N/O)c3ccccc3)cc21 [Enviroxime], the CC50 (in vitro [1]) was 3.3 µg/mL (≈ 9.21 µM).
With CCOC(=O)c1ccc(OCCC2CCN(c3ccc(C)nn3)CC2)cc1 [Pirodavir] the CC50 (in vitro [2]) was 4.3 µg/mL (≈ 11.6 µM).
For C#C[C@@]1(O)[C@H](O)[C@@H](CO)O[C@H]1n1ccc2c(N)ncnc21 [NITD008], the EC50 (Zika virus [3]) was 1.8 µg/mL (≈ 6.2 µM).
With O=c1ccn([C@@H]2OC(CO)=C[C@H]2O)c(=O)[nH]1 [AB21649] the “antiviral activity (in words)” value (Influenza B) was “exhibits antiviral activity”, the “antiviral activity (in words)” value (Influenza A (H5N1)) was “exhibits antiviral activity” and the “antiviral activity (in words)” value (Influenza A (H1N1)) was “exhibits antiviral activity”.
In the case of NC(=O)c1ncn([C@@H]2O[C@H](CO)[C@@H](O)[C@H]2O)n1 [Ribavirin], the EC50 [4] is reported as 14 µg/mL (≈ 57.3 µM), the EC50 (RSV) is reported as 7.3 µg/mL (≈ 29.9 µM) and the EC50 (Influenza B; Influenza B virus, MDCK) is reported as 1.4 µg/mL (≈ 5.73 µM). It also gave an EC50 (Influenza A (H5N1); Influenza A virus, H5N1, MDCK) of 1.8 µg/mL (≈ 7.37 µM) and an EC50 (Influenza A (H1N1); Influenza A virus, H1N1, MDCK) of 4.6 µg/mL (≈ 18.8 µM).
In the case of Nc1ccn([C@@H]2OC(CO)=C[C@H]2O)c(=O)n1 [AB21650, 3′-deoxy-3′,4′-didehydro cytidine], the “antiviral activity (in words)” value (enterovirus-68 (EV-68)) is listed as “exhibits some activity” and the “replication of Zika virus” value (Zika virus [5]) is listed as “directly inhibit replication of Zika virus”.
With Nc1nc2c(ncn2[C@@H]2OC(CO)=CC2O)c(=O)[nH]1 (stereo partly drawn) [AB21651] the “antiviral activity (in words)” value (Influenza A (H5N1)) was “exhibits antiviral activity” and the “antiviral activity (in words)” value (Influenza A (H1N1)) was “exhibits antiviral activity”.
